These results are taken from ChEMBL document CHEMBL1944561, “Discovery and SAR exploration of a novel series of imidazo[4,5-b]pyrazin-2-ones as potent and selective mTOR kinase inhibitors” (Bioorg Med Chem Lett, 2011).

The target in data set [1] is Tyrosine-protein kinase Lck (Homo sapiens) (UniProt P06239). Put plainly: Inhibition of Lck assessed as activity remaining at 10 uM.
For data set [2], the target named is MAP kinase-activated protein kinase 3 (Homo sapiens) (UniProt Q16644). Put plainly: Inhibition of MAPKAP-K3 assessed as activity remaining at 10 uM.
Data set [3] deals with Tyrosine-protein kinase JAK2 (Homo sapiens) (UniProt O60674). Briefly: Inhibition of JAK2 assessed as activity remaining at 10 uM.
In data set [4] the target is Platelet-derived growth factor receptor alpha (Homo sapiens) (UniProt P16234). Briefly: Inhibition of PDGFRalpha assessed as activity remaining at 10 uM.
Platelet-derived growth factor receptor alpha (Homo sapiens), sequence (P16234 whole entry): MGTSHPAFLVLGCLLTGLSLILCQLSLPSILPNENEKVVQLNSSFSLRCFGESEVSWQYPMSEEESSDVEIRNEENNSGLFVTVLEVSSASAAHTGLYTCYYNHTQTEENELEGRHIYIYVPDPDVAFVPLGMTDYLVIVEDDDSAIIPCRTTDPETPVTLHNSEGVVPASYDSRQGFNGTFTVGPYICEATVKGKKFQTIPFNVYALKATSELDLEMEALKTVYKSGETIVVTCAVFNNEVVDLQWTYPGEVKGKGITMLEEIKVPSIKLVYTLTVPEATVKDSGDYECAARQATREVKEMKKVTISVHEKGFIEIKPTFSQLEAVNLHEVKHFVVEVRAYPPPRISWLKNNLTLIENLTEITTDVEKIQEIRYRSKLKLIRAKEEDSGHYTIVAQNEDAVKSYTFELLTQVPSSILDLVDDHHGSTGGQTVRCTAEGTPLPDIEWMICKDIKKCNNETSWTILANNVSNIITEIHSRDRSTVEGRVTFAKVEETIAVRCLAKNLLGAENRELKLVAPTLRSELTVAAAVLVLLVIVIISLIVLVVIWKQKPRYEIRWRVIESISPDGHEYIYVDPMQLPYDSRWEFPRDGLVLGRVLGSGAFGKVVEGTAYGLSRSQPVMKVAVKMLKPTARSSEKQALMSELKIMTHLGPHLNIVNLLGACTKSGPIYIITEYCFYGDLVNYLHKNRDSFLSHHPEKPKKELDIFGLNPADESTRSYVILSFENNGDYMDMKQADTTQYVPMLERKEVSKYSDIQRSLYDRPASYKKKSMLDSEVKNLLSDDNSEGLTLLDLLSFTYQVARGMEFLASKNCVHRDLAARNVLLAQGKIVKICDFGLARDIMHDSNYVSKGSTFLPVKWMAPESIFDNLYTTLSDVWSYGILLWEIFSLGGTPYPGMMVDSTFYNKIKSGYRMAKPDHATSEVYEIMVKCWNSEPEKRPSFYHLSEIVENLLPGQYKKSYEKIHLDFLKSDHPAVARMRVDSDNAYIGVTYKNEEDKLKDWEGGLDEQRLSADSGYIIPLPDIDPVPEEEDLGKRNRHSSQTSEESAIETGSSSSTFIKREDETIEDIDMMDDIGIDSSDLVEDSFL
Data set [5] deals with Serine/threonine-protein kinase mTOR (Homo sapiens, UniProt P42345). Put plainly: Inhibition of mTOR assessed as activity remaining at 10 uM.
The target of data set [6] is Tyrosine-protein kinase Lyn (Homo sapiens) (UniProt P07948). Put plainly: Inhibition of LYN-A assessed as activity remaining at 10 uM.
Tyrosine-protein kinase Lyn (Homo sapiens), sequence (P07948 2-512 limits assumed): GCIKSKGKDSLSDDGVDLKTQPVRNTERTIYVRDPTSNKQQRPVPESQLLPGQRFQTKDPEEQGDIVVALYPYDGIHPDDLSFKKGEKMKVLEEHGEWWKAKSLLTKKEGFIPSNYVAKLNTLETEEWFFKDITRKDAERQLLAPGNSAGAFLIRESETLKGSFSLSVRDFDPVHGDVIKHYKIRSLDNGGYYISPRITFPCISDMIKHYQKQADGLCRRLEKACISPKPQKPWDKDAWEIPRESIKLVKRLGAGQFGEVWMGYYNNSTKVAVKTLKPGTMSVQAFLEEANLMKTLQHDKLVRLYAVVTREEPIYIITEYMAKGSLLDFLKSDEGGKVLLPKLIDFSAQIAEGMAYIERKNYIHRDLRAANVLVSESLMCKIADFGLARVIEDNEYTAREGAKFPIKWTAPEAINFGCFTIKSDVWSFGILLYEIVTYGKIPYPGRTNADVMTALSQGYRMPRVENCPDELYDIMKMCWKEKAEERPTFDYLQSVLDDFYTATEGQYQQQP
The nature of data set [7]: Inhibition of p70S6K assessed as activity remaining at 10 uM.
Data set [8] has as its target Tyrosine-protein kinase ZAP-70 (Homo sapiens) (UniProt P43403). Briefly: Inhibition of ZAP70 assessed as activity remaining at 10 uM.
For data set [9], the target named is Hepatocyte growth factor receptor (Homo sapiens) (UniProt P08581). Briefly: Inhibition of Met assessed as activity remaining at 10 uM.
Hepatocyte growth factor receptor (Homo sapiens), sequence (P08581 whole entry): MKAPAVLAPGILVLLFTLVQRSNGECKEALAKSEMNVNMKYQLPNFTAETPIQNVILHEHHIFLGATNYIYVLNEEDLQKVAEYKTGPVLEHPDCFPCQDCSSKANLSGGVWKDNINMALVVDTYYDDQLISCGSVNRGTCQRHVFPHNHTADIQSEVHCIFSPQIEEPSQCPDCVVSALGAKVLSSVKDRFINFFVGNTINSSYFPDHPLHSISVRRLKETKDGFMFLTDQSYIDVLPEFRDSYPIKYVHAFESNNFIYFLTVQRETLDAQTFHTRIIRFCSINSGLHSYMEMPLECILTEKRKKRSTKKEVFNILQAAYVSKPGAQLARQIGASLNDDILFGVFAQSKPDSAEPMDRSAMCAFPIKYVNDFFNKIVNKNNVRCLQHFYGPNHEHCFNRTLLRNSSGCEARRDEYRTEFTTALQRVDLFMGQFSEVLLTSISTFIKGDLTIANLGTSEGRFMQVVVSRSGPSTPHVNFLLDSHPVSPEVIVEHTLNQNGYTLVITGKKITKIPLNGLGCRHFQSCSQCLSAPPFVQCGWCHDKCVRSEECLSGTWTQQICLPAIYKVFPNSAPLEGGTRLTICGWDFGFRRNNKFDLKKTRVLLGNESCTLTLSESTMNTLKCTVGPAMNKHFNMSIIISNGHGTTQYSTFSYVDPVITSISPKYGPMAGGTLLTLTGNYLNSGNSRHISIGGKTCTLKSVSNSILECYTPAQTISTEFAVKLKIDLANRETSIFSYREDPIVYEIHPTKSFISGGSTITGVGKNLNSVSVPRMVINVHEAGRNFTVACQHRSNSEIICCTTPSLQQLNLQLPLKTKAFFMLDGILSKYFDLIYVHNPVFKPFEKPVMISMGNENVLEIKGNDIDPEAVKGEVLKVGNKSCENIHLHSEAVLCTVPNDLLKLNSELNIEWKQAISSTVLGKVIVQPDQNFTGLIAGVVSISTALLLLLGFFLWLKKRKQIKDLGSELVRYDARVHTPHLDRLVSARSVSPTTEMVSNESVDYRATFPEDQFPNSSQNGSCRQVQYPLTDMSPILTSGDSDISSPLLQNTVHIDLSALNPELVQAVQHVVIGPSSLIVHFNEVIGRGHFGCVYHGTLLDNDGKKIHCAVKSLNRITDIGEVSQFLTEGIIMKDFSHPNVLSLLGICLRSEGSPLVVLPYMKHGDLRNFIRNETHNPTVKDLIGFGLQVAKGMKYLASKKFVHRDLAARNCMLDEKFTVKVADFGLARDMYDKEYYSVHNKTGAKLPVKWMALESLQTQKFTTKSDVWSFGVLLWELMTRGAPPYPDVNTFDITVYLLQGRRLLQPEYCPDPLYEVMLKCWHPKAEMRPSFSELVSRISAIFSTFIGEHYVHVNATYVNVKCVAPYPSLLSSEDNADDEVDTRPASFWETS
In data set [10] the target is T1, Tyrosine-protein kinase JAK3 (Homo sapiens) (UniProt P52333).
T1 sequence (whole entry): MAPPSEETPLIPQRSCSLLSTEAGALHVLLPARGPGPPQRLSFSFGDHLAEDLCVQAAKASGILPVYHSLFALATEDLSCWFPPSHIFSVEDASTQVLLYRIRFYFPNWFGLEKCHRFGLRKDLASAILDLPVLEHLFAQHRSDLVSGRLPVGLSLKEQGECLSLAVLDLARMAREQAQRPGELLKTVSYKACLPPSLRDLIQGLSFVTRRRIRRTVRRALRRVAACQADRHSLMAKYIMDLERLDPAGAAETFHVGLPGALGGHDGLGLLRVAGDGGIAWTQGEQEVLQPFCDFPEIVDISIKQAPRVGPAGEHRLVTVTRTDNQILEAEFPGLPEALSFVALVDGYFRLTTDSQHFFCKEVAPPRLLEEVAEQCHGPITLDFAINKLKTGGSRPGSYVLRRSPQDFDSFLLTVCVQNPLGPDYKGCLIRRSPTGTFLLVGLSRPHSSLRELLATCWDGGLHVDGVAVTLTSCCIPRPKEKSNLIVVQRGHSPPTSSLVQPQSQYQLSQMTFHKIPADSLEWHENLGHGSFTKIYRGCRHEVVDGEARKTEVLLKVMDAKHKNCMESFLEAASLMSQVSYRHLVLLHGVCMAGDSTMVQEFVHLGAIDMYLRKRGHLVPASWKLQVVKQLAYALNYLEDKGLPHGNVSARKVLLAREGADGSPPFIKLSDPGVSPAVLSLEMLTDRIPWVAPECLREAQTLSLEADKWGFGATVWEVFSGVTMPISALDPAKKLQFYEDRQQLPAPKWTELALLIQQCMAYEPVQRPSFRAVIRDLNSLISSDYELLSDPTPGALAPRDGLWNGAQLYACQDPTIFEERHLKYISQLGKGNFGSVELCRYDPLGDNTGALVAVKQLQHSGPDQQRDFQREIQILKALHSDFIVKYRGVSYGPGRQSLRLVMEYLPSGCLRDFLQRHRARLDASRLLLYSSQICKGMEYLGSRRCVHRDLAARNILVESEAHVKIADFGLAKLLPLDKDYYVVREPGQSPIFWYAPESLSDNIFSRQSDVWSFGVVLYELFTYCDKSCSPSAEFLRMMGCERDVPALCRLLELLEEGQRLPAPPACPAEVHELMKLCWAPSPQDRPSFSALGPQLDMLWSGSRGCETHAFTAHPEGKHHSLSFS
Briefly: Inhibition of JAK3 assessed as activity remaining at 10 uM.

Data set [11] has as its target Macrophage-stimulating protein receptor (Homo sapiens) (UniProt Q04912). Put plainly: Inhibition of Ron assessed as activity remaining at 10 uM.
For data set [12], the target named is Serine/threonine-protein kinase PLK1 (Homo sapiens) (UniProt P53350). Briefly: Inhibition of Plk1 assessed as activity remaining at 10 uM.
The target in data set [13] is Serine/threonine-protein kinase PAK 4 (Homo sapiens) (UniProt O96013). Briefly: Inhibition of PAK4 assessed as activity remaining at 10 uM.
Serine/threonine-protein kinase PAK 4 (Homo sapiens), sequence (O96013 whole entry, looked up): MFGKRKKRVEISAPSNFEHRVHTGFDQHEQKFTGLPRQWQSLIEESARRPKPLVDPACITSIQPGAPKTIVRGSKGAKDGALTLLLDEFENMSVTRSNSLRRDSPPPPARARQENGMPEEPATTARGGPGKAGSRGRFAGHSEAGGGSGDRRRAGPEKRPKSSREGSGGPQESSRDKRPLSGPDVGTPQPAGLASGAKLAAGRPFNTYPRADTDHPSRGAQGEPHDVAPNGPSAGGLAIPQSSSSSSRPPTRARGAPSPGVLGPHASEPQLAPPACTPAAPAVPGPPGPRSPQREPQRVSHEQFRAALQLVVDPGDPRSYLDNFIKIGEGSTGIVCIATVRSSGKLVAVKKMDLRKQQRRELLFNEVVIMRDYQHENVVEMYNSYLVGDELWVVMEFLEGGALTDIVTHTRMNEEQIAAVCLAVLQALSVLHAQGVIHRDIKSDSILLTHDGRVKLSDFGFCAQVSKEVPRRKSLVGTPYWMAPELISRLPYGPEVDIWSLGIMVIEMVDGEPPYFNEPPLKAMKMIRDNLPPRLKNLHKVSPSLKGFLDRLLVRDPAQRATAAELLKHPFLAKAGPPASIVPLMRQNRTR
Data set [14] concerns the target Serine/threonine-protein kinase D2 (Homo sapiens) (UniProt Q9BZL6). Put plainly: Inhibition of PKD2 assessed as activity remaining at 10 uM.
The target of data set [15] is T2, Cytoplasmic tyrosine-protein kinase BMX (Homo sapiens) (UniProt P51813).
T2 sequence (whole entry): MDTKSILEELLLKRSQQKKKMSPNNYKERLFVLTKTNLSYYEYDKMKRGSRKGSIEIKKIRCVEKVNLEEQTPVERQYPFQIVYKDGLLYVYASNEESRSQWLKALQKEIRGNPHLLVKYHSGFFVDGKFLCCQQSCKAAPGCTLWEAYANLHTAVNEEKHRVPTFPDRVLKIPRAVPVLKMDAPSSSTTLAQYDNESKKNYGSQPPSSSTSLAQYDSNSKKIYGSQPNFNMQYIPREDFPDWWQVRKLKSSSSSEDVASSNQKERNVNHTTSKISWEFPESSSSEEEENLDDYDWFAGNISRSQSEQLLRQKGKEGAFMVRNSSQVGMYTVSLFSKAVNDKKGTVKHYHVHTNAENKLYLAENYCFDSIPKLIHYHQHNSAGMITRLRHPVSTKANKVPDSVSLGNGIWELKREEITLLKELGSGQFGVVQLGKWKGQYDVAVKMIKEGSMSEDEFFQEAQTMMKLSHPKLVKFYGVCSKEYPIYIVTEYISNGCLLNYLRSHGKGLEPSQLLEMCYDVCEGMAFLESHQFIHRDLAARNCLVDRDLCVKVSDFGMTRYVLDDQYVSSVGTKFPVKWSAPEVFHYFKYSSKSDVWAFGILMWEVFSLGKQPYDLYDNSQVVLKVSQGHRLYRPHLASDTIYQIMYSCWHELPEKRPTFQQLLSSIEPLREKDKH
Put plainly: Inhibition of Bmx assessed as activity remaining at 10 uM.

The target of data set [16] is Glycogen synthase kinase-3 alpha (Homo sapiens, UniProt P49840). Briefly: Inhibition of GSK3alpha.
Glycogen synthase kinase-3 alpha, sequence (P49840 whole entry): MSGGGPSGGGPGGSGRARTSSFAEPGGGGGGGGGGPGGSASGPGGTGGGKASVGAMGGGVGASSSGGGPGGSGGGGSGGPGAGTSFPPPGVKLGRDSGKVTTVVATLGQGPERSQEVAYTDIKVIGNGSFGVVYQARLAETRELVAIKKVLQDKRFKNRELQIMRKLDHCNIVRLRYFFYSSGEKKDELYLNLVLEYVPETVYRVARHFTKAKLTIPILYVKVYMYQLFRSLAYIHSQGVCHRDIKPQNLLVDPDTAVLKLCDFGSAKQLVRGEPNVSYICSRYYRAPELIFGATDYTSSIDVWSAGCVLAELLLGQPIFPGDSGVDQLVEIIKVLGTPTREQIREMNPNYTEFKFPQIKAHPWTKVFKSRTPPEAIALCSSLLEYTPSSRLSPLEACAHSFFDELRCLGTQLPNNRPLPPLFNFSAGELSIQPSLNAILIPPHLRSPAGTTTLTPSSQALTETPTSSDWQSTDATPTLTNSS
Data set [17] is described as follows: Metabolic stability in rat hepatocytes assessed as compound remaining after 60 mins. Particulars: read-out: Stability. The format is ADME, cell-based, Hepatocyte.

Serine/threonine-protein kinase D2 (Homo sapiens), sequence (Q9BZL6 whole entry): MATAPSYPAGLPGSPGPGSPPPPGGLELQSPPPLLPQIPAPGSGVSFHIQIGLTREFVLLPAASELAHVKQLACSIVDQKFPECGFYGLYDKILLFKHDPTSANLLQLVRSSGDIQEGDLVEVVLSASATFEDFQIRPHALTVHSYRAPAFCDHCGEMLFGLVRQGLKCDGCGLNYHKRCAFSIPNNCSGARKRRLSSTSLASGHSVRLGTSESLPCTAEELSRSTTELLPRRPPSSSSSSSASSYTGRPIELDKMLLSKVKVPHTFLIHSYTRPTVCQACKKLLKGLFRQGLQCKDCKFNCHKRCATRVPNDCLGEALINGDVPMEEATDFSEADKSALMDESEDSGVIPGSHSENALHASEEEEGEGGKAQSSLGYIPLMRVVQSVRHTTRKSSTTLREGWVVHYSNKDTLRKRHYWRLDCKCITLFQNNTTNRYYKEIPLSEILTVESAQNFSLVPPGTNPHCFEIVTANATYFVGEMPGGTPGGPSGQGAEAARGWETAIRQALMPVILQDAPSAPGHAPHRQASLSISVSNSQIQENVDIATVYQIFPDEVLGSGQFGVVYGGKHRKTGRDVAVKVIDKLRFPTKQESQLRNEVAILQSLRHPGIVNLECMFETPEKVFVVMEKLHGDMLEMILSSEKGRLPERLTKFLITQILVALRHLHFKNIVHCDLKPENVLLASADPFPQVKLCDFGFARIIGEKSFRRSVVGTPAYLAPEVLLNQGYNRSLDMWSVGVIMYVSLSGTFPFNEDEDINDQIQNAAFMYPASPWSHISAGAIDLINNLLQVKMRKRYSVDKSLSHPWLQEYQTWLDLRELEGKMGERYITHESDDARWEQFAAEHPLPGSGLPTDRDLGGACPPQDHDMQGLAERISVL

In the case of `O=c1[nH]c2ncc(-c3ccc(-c4nc[nH]n4)cc3)nc2n1CC1CCOCC1`, the Activity amounted to 86% in data set [1]; 94% in data set [2]; 98% in data set [3]; 94% in data set [4]; 0% in [5]; 96% in data set [6]. In addition, the Activity in data set [7] worked out at 96%; in [8], 99%; in data set [9] it was 92%; in [10], 96%; in data set [11], 95%; in [12], 95%. The Activity in data set [13] stood at 87%; in [14], 94%; in data set [15], 93%.
Usually IC50 stands for the concentration that gives 50% inhibition. A high value points to lower potency. With `O=c1[nH]c2ncc(-c3ccc4[nH]cnc4c3)nc2n1CC1CCCCC1`, inhibition in [16] was half-maximal at 990 nM (IC50). Further, the Activity worked out at 85% in data set [4]; 86% in data set [7]; 66% in data set [9]; 95% in data set [10]; 81% in data set [13]; 92% in [15].
Turning to `CC(C)(O)c1ccc(-c2cnc3[nH]c(=O)n(CC4CCCCC4)c3n2)cc1`, in data set [16], the IC50 turned out to be 600 nM. The Activity in [4] worked out at 93%; in data set [7], 99%; in data set [9], 94%; in [10], 101%; in data set [13], 87%; in [15] it was 85%. Also, in [17], the remaining at 1 h came out at 65%.
